Laboratory results published in patent publication US20070111251A1, “Chemical address tags” (priority 2003, published 2007).
One block for each molecule: values may come before it.

What was measured:
[1] = test system: dsDNA; experiment: Fluorometric titration of styryl dyes with dsDNA in buffer solution; format: binding, Salmon; details: for em^free / Øf^free: free dye; for fluorescence emission increase with DNA versus free compound: highest concentration of DNA tested, 50 μg mL^−1; for Øf^DNA: quantum yield with dsDNA; for Øf^free: quantum yield; for max: spectrophotometric properties of the styryl dyes; for em^DNA: with dsDNA
Experimental: In some embodiments, the synthesis of compounds B was achieved by refusing with the pyridine derivatives and iodomethane for 2 hours, and compound B crystallized out in ethyl acetate. The condensation with aldehydes (A) and compound B was performed by refusing with piperidine for 2 hours in EtOH. After cooling to room temperature, the crystallized compounds were filtered and washed with ethyl acetate. With these purified compounds, the fluorescence intensity change upon addition of DNA was tested.
With a series of concentrations of dsDNA (double stranded DNA) added to compound 1, a linear increase in the fluorescence intensities was observed. (FIG. 17). […] At the highest concentration of DNA tested (50 μg mL^−1), the fluorescence emission reached up to 13.3 times higher than that of the free compound. Briefly, FIGS. 18A-18C show the absorption and fluorescence spectra of compounds 1, 2, and 3 (Dye 1, 2, 3 [50 μM], dsDNA [50 μg mL^−1]). A blue shift of 17 nm in the emission wavelength upon DNA addition was observed, without a significant excitation wavelength shift. The structure of compound 1 includes a 2,4,5-trimethoxy group from the benzaldehyde moiety and a unique adamantyl pyridinium functionality.
Unless otherwise noted, starting materials and solvents were purchased from commercial suppliers, and used without purification. Ethanol (EtOH) and ethyl acetate (EA) from Acros Organics (Fisher Scientific, UK) were used as the reaction solvents without any prior purification. Salmon testes solid dsDNA, and phosphate buffered saline (PBS) (NaCl 120 mM, KCl 2.7 mM, and phosphate buffer 10 mM, pH=7.4 at 24° C.) were purchased from Sigma-Aldrich and needed no further purification. Fluorescence intensities were measured by a Jobin Yvon Horiba FluoroMAX-3 fluorimeter (Horiba Group, Kyoto, Japan) with a quartz cuvette cell (10 mm×10 mm×4.5 cm; Starna (Atascadero, Calif.). ^1H-NMR (200 MHz) spectra were determined on Gemini 200 spectrometer (Varian, Inc., Palo Alto, Calif.). Chemical shifts were reported in parts per million (ppm) relative to the line of a singlet at 2.50 ppm for DMSO-d6 and coupling constants (j) are in Hertz (Hz). The following abbreviations are used for spin multiplicity: s=singlet, d=doublet, t=triplet, m=multiplet, and b=broad. All dye products were identified by LC-MS from Agilent Technology (Palo Alto, Calif.), using a C18 column (20×4.0 mm), with 4 minutes elution using a gradient of 5-95% CH3CN (containing 1% acetic acid)-H2O (containing 1% acetic acid), with UV detector at %=400 nm and an electrospray ionization source.

[2] = test system: live UACC-62 human melanoma cells; experiment: Cell-based screening of extended styryl library: nuclear staining of live cells; details: live UACC-62 cells; compounds 1-3 at 500 μM
Text: In one preferred embodiment, an extended styryl dye library, composed of 855 compounds, was synthesized (See, Example 7) and screened for the subcellular localization in live […] human melanoma cells on glass bottom 96-well plates by the combinatorial library synthesis methods disclosed herein. […] The compounds were resynthesized on large scale for further study. (FIG. 16).
Therefore, both 2,4,5-trunethoxy groups and the adamantyl group are important in the specific interaction of compound 1 and DNA. The three related compounds 1, 2, and 3 were incubated in live UACC-62 human melanoma cells to compare their nuclear localization properties. (FIG. 19).

[3] = test system: live UACC-62 human melanoma cells; experiment: Organelle-binding test: subcellular localization of styryl library compounds by fluorescence microscopy; format: cell-based; design: key to experimentally determined localization (subscript): The subscript m indicates experimentally determined mitochondrial localization; The subscript o indicates experimentally determined non-mitochondrial localization; details: for experimentally determined localization (subscript): mitochondrial vs non-mitochondrial, live UACC-62 cells; for representative localization: FIG. 5, live UACC-62 cells
Experimental: The synthesis was designed so that the reaction mixture can be used directly in biological screening; toxic catalysts (e.g., such as strong acids, bases, and metals) were avoided, and most of the low-boiling point solvents and catalysts (e.g., pyrrolidine) were removed during the microwave reaction, leaving only DMSO, a common solvent for biological sample preparation. In some embodiments, without further purification, the library compounds were incubated with live UACC-62 human melanoma cells growing on glass bottom 96-well plates, and the localizations of the different compounds in the cells were determined using an Axiovert (Carl Zeiss, Inc., Thornwood, N.Y.) microscope (λex=405, 490, and 570 nm; λem>510 nm) with a 100× Zeiss oil immersion objective. […] The images in FIG. 5 show cells stained with selected fluorescent compounds.
Unless otherwise noted in this example, the materials and solvents were obtained from commercial suppliers and were used without further purification. The plate reader used in this example was a Spectra Max Gemini XSF (Molecular Devices, Corp., Sunnyvale, Calif.). In preferred embodiments, for organelle-binding tests, UACC-62 melanoma cells were selected amongst a panel of 60 human cancer cell lines, because their well-spread morphology on glass made them ideally suited for imaging purposes as well as their relevance to biomedical research. (See e.g., R. H. Shoemaker et al., Development of human tumor cell line panels for use in disease oriented drug screening. In: Hall, T. ed., Prediction of Response to Anti-cancer Chemotherapy, New York N.Y.: Alan Liss, 265-286 [1988]).
In some of these embodiments, UACC-62 cells (obtained from the Developmental Therapeutics Program at the National Cancer Institute) were grown in RPMI medium supplemented with 10% fetal calf serum. For microscopy, cells were plated on 96 well tissue-culture plates (Falcon) overnight, in RPMI plus 10% fetal calf serum, at 37° C. in 5% CO2/95% air. Cells were incubated with compounds at an approximate concentration of 50 μM for 1 hour.
A Zeiss Axiovert 135M (Carl Zeiss, Inc., Thornwood, N.Y.) inverted fluorescence microscope outfitted with a FITC/TRITC multipass filter cube (Chroma Technology, Corp., Rockingham, Vt.) was used for screening and routine cell biological fluorescence imaging applications. In some embodiments, epifluorescence microscopy was performed using a Zeiss Axiovert epifluorescence microscope equipped with a 20× objective.
The library compounds, without further purification, were incubated with live UACC-62 human melanoma cells growing on glass bottom 96-well plates (Sigma-Aldrich Corp., St. Louis, Mo.), and the localizations of the different compounds in the cells were determined by an inverted fluorescence microscope (λex=405, 490, and 570 nm; λem>510 nm) at 1000× magnification. Based on their morphology and subcellular distribution, the localizations were ascribed to mitochondria, ER (endoplasmic reticulum), nucleoli, nuclear, and cytoplasmic staining patterns such as diffuse (based on the homogenous staining appearance and exclusion from the nucleus), granular (punctate staining pattern, generally associated with the cell margins) or vesicular (heterogeneous staining pattern, generally associated with the nuclear periphery). Localization studies were performed without a priori information of the compounds' molecular structures. It was possible to ascribe the localization of the compounds to nucleus or cytoplasm, as these organelles are clearly discernible with phase contrast optics. Similarly, it was possible to ascribe localization to nucleoli, as these structures appeared as the most prominent, phase-dense structures within the nucleus. Localization to mitochondria was based on the elongated, characteristic shape of these organelles, which stain positive with established mitochondrial-specific fluorescent probes, like […] or JC-1. (L. B. Chen, Methods Cell Bio., 29:103-123 [1989]). […]

blue shift in the emission wavelength upon DNA addition [1]: 17 nm
emission wavelength [1]: 583 nm
excitation wavelength [1]: 413 nm
em^free [1]: 583 nm
linear fluorescence response range ([1]; in PBS, without self-quenching or wavelength shifts): 0.05 to 100 µM
Øf^DNA [1]: 0.0032
Øf^free [1]: 0.00024
max [1]: 413 nm
em^DNA [1]: 566 nm
SMILES: COc1cc(OC)c(OC)cc1C=Cc1cc[n+](C23CC4CC(CC(C4)C2)C3)cc1.[Br-] [Compound 1, 2-[4-[5-(trimethyoxy)phenyl]-ethenyl-1-adamantyl]-4-methylpyridinium bromide]
fluorescence intensity change upon addition of DNA [1]: strong fluorescence increase
Øf^DNA/Øf^free [1]: 13.3
fluorescence emission increase with DNA versus free compound [1]: 13.3 fold
nuclear staining / nuclear localization in live cells [2]: clearly stains the nucleus of live cells more selectively

em^free [1]: 553 nm
Øf^DNA [1]: 0.022
Øf^free [1]: 0.0051
max [1]: 366 nm
em^DNA [1]: 520 nm
SMILES: COc1cc(C=Cc2cc[n+](C34CC5CC(CC(C5)C3)C4)cc2)cc(OC)c1OC.[Br-] [Compound 2]
Øf^DNA/Øf^free [1]: 4.3
fluorescence emission increase with DNA versus free compound [1]: 4.3 fold
nuclear staining / nuclear localization in live cells [2]: stronger fluorescence backgrounds and spread throughout the cytoplasm

em^free [1]: 491 nm
Øf^DNA [1]: 0.0037
Øf^free [1]: 0.0024
max [1]: 370 nm
em^DNA [1]: 592 nm
SMILES: COc1ccc(C=Cc2cc[n+](C34CC5CC(CC(C5)C3)C4)cc2)c(OC)c1OC.[Br-] [Compound 3]
Øf^DNA/Øf^free [1]: 1.5
fluorescence emission increase with DNA versus free compound [1]: 1.5 fold
nuclear staining / nuclear localization in live cells [2]: stronger fluorescence backgrounds and spread throughout the cytoplasm

SMILES: COc1cc(OC)c(OC)cc1C=Cc1cc[n+](C)cc1.[I-] [Compound 4, 1-Methyl-4[2-(2,4,5-trimethoxy-phenyl)-vinyl]pyridinium iodide]
fluorescence intensity change upon addition of DNA [1]: significantly reduced the DNA response

SMILES: Cc1cc[n+](C)c(/C=C/c2c[nH]c3ccccc23)c1.[I-] [Compound A24-B11]
experimentally determined localization (subscript) [3]: m

SMILES: CN(C)c1ccc(C=Cc2cc[n+](C)cc2)c2ccccc12.[I-] [Compound A27-B1]
experimentally determined localization (subscript) [3]: o

SMILES: CN(C)c1ccc(C=Cc2ccc3ccccc3[n+]2C)c2ccccc12.[I-] [Compound A27-B8]
experimentally determined localization (subscript) [3]: m

SMILES: Cc1ccnc(-c2cc(C=CC=Cc3ccccc3)cc[n+]2C)c1.[I-] [Compound A35-B10]
experimentally determined localization (subscript) [3]: o

SMILES: Cc1cccc(C=CC=Cc2ccccc2)[n+]1C.[I-] [Compound A35-B12]
experimentally determined localization (subscript) [3]: m

SMILES: Cc1ccc[n+](C)c1C=CC=Cc1ccc(N(C)C)cc1.[I-] [Compound A37-B4]
experimentally determined localization (subscript) [3]: m

SMILES: Cc1ccnc(-c2cc(C=CC=Cc3ccc(N(C)C)cc3)cc[n+]2C)c1.[I-] [Compound A37-B10]
representative localization [3]: reticular
experimentally determined localization (subscript) [3]: o

SMILES: COc1cc(OC)c(OC)cc1C=Cc1cc[n+](C23CC4CC(CC(C4)C2)C3)cc1.[Br-] [Compound A38-B2]
experimentally determined localization (subscript) [3]: m

SMILES: COc1cc(OC)c(OC)cc1C=Cc1cc[n+](C)c2ccccc12.[I-] [Compound A38-B7]
experimentally determined localization (subscript) [3]: o

SMILES: COc1cc(OC)c(OC)cc1C=Cc1cc[n+](C)c(-c2cc(C)ccn2)c1.[I-] [Compound A38-B10]
experimentally determined localization (subscript) [3]: m

SMILES: C[n+]1c(C=Cc2ccc3c(c2)OCO3)ccc2ccccc21.[I-] [Compound A39-B8]
experimentally determined localization (subscript) [3]: o

SMILES: C[n+]1c(C=Cc2ccc(OCc3ccccc3)c(OCc3ccccc3)c2)ccc2ccccc21.[I-] [Compound H12]
representative localization [3]: vesicular

SMILES: C[n+]1c(C=Cc2ccc3c(c2)Cc2ccccc2-3)ccc2ccccc21.[I-] [Compound H28]
representative localization [3]: nuclear
